{
  "source": "patent US20240269154A1",
  "about": "“CANNABIDIOL FOR USE IN THE TREATMENT OF PAIN RESULTING FROM AN INDOLEAMINE 2,3-DIOXYGENASE-1 (IDO1) RELATED DISEASE” (Assistance Publique - Hopitaux de Paris, priority 2021, published 2024)",
  "system": "patients suffering from indolent systemic mastocytosis (ISM) or mast cell activation syndrome (MCAS) or having hypertryptasemia",
  "assay": "Numeric rating scale (NRS) pain score in 15 patients treated with CBD capsules",
  "type": "in vivo, human",
  "conditions": "for reduction of pain / average pain score (NRS): 15 patients; for reduction of pain: NRS; for average pain score (NRS): D0 average about 7.2",
  "description": "Fifteen patients suffering from indolent systemic mastocytosis (ISM) or mast cell activation syndrome (MCAS) or having hypertryptasemia with no positive result from classic treatments were treated with a daily dose from 15 to 400 mg of cannabidiol (CBD) by capsule.\nThe pain was measured using numeric rating scale (NRS) pain score, between 0 (no pain) and 10 (worst pain imaginable).",
  "key": {"[1]": {"conditions": "after one month of treatment (M1)"}, "[2]": {"conditions": "after three months of treatment (M3)"}},
  "note": "Entries after “also recorded” stand apart in the source; their conditions may differ.",
  "data": [
    {"smiles": "C=C(C)[C@@H]1CCC(C)=C[C@H]1c1c(O)cc(CCCCC)cc1O", "note": "[CBD, cannabidiol]", "values": [
      {"measurement": "reduction of pain", "setting": "M1 versus D0", "value": "about 2 points"},
      {"measurement": "reduction of pain", "setting": "M3 versus D0", "value": "about 3 points"},
      {"measurement": "average pain score (NRS)", "setting": "[1]", "value": 5.1},
      {"measurement": "average pain score (NRS)", "setting": "[2]", "value": 3.8},
      {"measurement": "relief of pain observed", "setting": "[1]", "value": "13 of 15"},
      {"measurement": "relief of pain observed", "setting": "[2]", "value": "14 of 15"},
      {"measurement": "pain treatment withdrawal", "setting": "individual patient, other pain treatment stopped under CBD", "value": "stop stelara; also recorded: stop NSAID; also recorded: stop nefopam; also recorded: stop memantine,; also recorded: stop opioids; also recorded: stop methadone,; also recorded: stop methadone; also recorded: stop ketamine; also recorded: stop amitriptyline"}
    ]}
  ]
}
